In US11542293B2, “Sting modulator compounds, and methods of making and using” (Takeda Pharmaceutical Company Limited, priority 2017, dated 2023):
Read-outs that look alike come from different tables or passages of the source.

How the values were obtained:
[1] = test system: THP1-Dual cells (ISG54 promoter Lucia luciferase reporter); test: THP-1 Dual Lucia Reporter Gene Assay; assay type: cell-based, human; conditions: Lucia luciferase signal induction, 20 hours at 37° C., read-out: Cellular THP 1 EC50
Procedure: THP1-Dual™ cells (InvivoGen #thpd-nfis) were derived from the human THP-1 monocyte cell line by stable integration of the Lucia luciferase gene, a secreted luciferase reporter gene, under the control of an ISG54 (interferon-stimulated gene) minimal promoter in conjunction with five interferon (IFN)-stimulated response elements. […] The cell plates were dosed with 62.5 nL of the testing compounds, and then incubated at 37° C. for 20 hours. At the end of the incubation, 15 μL/well of the QUANTI-Luc™ (InvivoGen #rep-q1c1) were added, and luminescence was measured immediately using the LeadSeeker.
Compound concentration versus percent signal induction curves were fitted to generate EC50 values.

[2] = target: Human STING (residues 140-379, H232R) (Homo sapiens (Human), UniProt Q86WV6, H232R); test: Human STING TR-FRET Assay; conditions: read-out: Enz-TR-Fret IC50, fluorescein labeled ligand 100 nM, STING protein 100 nM, 60 minutes at rt
Human STING (residues 140-379, H232R), sequence (Q86WV6 140-379 H232R): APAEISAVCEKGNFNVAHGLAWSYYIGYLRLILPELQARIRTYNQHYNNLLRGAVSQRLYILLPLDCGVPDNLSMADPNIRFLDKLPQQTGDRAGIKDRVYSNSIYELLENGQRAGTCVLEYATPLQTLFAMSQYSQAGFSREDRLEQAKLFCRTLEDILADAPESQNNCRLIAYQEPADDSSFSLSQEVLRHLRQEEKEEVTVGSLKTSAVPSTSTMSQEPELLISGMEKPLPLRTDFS
Procedure: The sequence was verified before recombinant protein expression using E. coli expression system.
For expression, STING expression vector was transformed into BL21(DE3) cells. The expression was induced by adding IPTG and expressing in 16° C. for 20 hours.
Biotinylation was confirmed by Mass Spectrometry analysis.
Then 2 uL STING assay buffer containing STING protein (100 nM final) was added and the mixture was incubated at rt for 60 minutes. The plates were then read on a BMG PheraStar Plus reader (LanthaScreen module).
For the assay method described above, test compound percent inhibition, at various concentrations, was calculated relative to untreated and DMSO only treated samples. Compound concentration versus percent inhibition curves were fitted to generate IC50 values.

| Structure (SMILES) | EC50 ([1]; Homo sapiens, THP1-Dual, 20 h) [nM] | IC50 [2] [nM] | EC50 [1] [nM] |
| --- | --- | --- | --- |
| Nc1nc2c(ncn2[C@@H]2O[C@@H]3COP(=O)(S)O[C@@H]4[C@@H](COP(=O)(S)O[C@@H]2[C@@H]3O)C[C@@H](Oc2ccncn2)[C@@H]4F)c(=O)[nH]1 (single isomer, unassigned) [Compound I-39a] | 1000 to 10000 | < 1000 | – |
| Nc1nc2c(ncn2[C@@H]2O[C@@H]3COP(=O)(S)O[C@@H]4[C@@H](COP(=O)(S)O[C@@H]2[C@@H]3O)C[C@@H](Oc2ccncn2)[C@@H]4F)c(=O)[nH]1 (single isomer, unassigned) [Compound I-39b] | – | < 1000 | < 1000 |
| Nc1nc2c(ncn2[C@@H]2O[C@@H]3COP(=O)(O)O[C@@H]4[C@@H](COP(=O)(S)O[C@@H]2[C@@H]3O)C[C@@H](Nc2ncncn2)[C@@H]4F)c(=O)[nH]1 (single isomer, unassigned) [Compound I-42] | 1000 to 10000 | < 1000 | – |
| Nc1nc2c(ncn2[C@@H]2O[C@@H]3COP(=O)(S)O[C@@H]4[C@@H](COP(=O)(O)O[C@@H]2[C@@H]3O)C[C@@H](Nc2ncncn2)[C@@H]4F)c(=O)[nH]1 (single isomer, unassigned) [Compound I-43] | 1000 to 10000 | – | – |
| Nc1nc2c(ncn2[C@@H]2O[C@@H]3COP(=O)(S)O[C@@H]4[C@@H](COP(=O)(S)O[C@@H]2[C@@H]3O)C[C@@H](Nc2ncncn2)[C@@H]4F)c(=O)[nH]1 (single isomer, unassigned) [Compound I-45] | 1000 to 10000 | < 1000 | – |
| Nc1nc2c(ncn2[C@@H]2O[C@@H]3COP(=O)(O)O[C@H]4C[C@H](Oc5ccncn5)C[C@@H]4COP(=O)(O)O[C@@H]2[C@@H]3O)c(=O)[nH]1 [Compound I-10, 2-amino-9-[(5R,7R,8R,12aR,14R,15aS,16R)-2,10,16-trihydroxy-2,10-dioxido-14-(pyrimidin-4-yloxy)decahydro-5,8-methanocyclopenta[1][1,3,6,9,11,2,10]pentaoxadiphosphacyclotetradecin-7-yl]-1,9-dihydro-6H-purin-6-one] | 1000 to 10000 | < 1000 | – |
| Nc1nc2c(ncn2[C@@H]2O[C@@H]3COP(=O)(S)O[C@H]4C[C@H](Oc5ccncn5)C[C@@H]4COP(=O)(O)O[C@@H]2[C@@H]3O)c(=O)[nH]1 (stereo partly drawn) [Compound I-17, 2-amino-9-[(2S,5R,7R,8R,12aR,14R,15aS,16R)-10,16-dihydroxy-2,10-dioxido-14-(pyrimidin-4-yloxy)-2-sulfanyldecahydro-5,8-methanocyclopenta[1][1,3,6,9,11,2,10]pentaoxadiphosphacyclotetradecin-7-yl]-1,9-dihydro-6H-purin-6-one] | 1000 to 10000 | < 1000 | – |
| Nc1nc2c(ncn2[C@@H]2O[C@@H]3COP(=O)(S)O[C@H]4C[C@H](Nc5ccncn5)C[C@@H]4COP(=O)(O)O[C@@H]2[C@@H]3O)c(=O)[nH]1 (stereo partly drawn) [Compound I-18, 2-amino-9-[(2S,5R,7R,8R,12aR,14R,15aS,16R)-10,16-dihydroxy-2,10-dioxido-14-(pyrimidin-4-ylamino)-2-sulfanyldecahydro-5,8-methanocyclopenta[1][1,3,6,9,11,2,10]pentaoxadiphosphacyclotetradecin-7-yl]-1,9-dihydro-6H-purin-6-one] | 1000 to 10000 | < 1000 | – |
| Nc1nc2c(ncn2[C@@H]2O[C@@H]3COP(=O)(S)O[C@@H]4[C@@H](COP(=O)(O)O[C@@H]2[C@@H]3F)C[C@@H](Nc2ccncn2)[C@@H]4F)c(=O)[nH]1 (stereo partly drawn) [Compound I-21, 2-amino-9-[(2S,5R,7R,8S,12aR,14R,15S,15aR,16R)-15,16-difluoro-10-hydroxy-2,10-dioxido-14-(pyrimidin-4-ylamino)-2-sulfanyldecahydro-5,8-methanocyclopenta[1][1,3,6,9,11,2,10]pentaoxadiphosphacyclotetradecin-7-yl]-1,9-dihydro-6H-purin-6-one] | 1000 to 10000 | < 1000 | – |
| Nc1nc2c(ncn2[C@@H]2O[C@@H]3COP(=O)(O)O[C@@H]4[C@@H](COP(=O)(S)O[C@@H]2[C@@H]3F)C[C@@H](Nc2ccncn2)[C@@H]4F)c(=O)[nH]1 (stereo partly drawn) [Compound I-24a, 2-amino-9-[(5R,7R,8S,10S,12aR,14R,15S,15aR,16R)-15,16-difluoro-2-hydroxy-2,10-dioxido-14-(pyrimidin-4-ylamino)-10-sulfanyldecahydro-5,8-methanocyclopenta[1][1,3,6,9,11,2,10]pentaoxadiphosphacyclotetradecin-7-yl]-1,9-dihydro-6H-purin-6-one] | 1000 to 10000 | < 1000 | – |
| Nc1nc2c(ncn2[C@@H]2O[C@@H]3COP(=O)(O)O[C@H]4C[C@H](Nc5ncncn5)C[C@@H]4COP(=O)(O)O[C@@H]2[C@@H]3O)c(=O)[nH]1 [Compound I-27, 2-amino-9-[(5R,7R,8R,12aR,14R,15aS,16R)-2,10,16-trihydroxy-2,10-dioxido-14-(1,3,5-triazin-2-ylamino)decahydro-5,8-methanocyclopenta[1][1,3,6,9,11,2,10]pentaoxadiphosphacyclotetradecin-7-yl]-1,9-dihydro-6H-purin-6-one] | 10000 to 25000 | < 1000 | – |
| Nc1nc2c(ncn2[C@@H]2O[C@@H]3COP(=O)(S)O[C@H]4C[C@H](Nc5ncncc5F)C[C@@H]4COP(=O)(S)O[C@@H]2[C@@H]3O)c(=O)[nH]1 (stereo partly drawn) [Compound I-34a, 2-amino-9-{(2S,5R,7R,8R,10S,12aR,14R,15aS,16R)-14-[(5-fluoropyrimidin-4-yl)amino]-16-hydroxy-2,10-dioxido-2,10-disulfanyldecahydro-5,8-methanocyclopenta[1][1,3,6,9,11,2,10]pentaoxadiphosphacyclotetradecin-7-yl}-1,9-dihydro-6H-purin-6-one] | < 1000 | < 1000 | – |
| Nc1nc2c(ncn2[C@@H]2O[C@@H]3COP(=O)(S)O[C@H]4C[C@H](Nc5ncncc5F)C[C@@H]4COP(=O)(S)O[C@@H]2[C@@H]3O)c(=O)[nH]1 (stereo partly drawn) [Compound I-34b, 2-amino-9-{(2S,5R,7R,8R,10S,12aR,14R,15aS,16R)-14-[(5-fluoropyrimidin-4-yl)amino]-16-hydroxy-2,10-dioxido-2,10-disulfanyldecahydro-5,8-methanocyclopenta [1][1,3,6,9,11,2,10]pentaoxadiphosphacyclotetradecin-7-yl}-1,9-dihydro-6H-purin-6-one] | – | < 1000 | 1000 to 10000 |
| Nc1nc2c(ncn2[C@@H]2O[C@@H]3COP(=O)(S)O[C@@H]4[C@@H](COP(=O)(S)O[C@@H]2[C@@H]3F)C[C@@H](Nc2ccncn2)[C@@H]4F)c(=O)[nH]1 (stereo partly drawn) [Compound I-38a, 2-amino-9-[(2S,5R,7R,8S,10S,12aR,14R,15S,15aR,16R)-15,16-difluoro-2,10-dioxido-14-(pyrimidin-4-ylamino)-2,10-disulfanyldecahydro-5,8-methanocyclopenta[1][1,3,6,9,11,2,10]pentaoxadiphosphacyclotetradecin-7-yl]-1,9-dihydro-6H-purin-6-one] | 1000 to 10000 | < 1000 | – |
| Nc1nc2c(ncn2[C@@H]2O[C@@H]3COP(=O)(O)O[C@@H]4[C@@H](COP(=O)(O)O[C@@H]2[C@@H]3O)C[C@@H](Nc2ncncn2)[C@@H]4F)c(=O)[nH]1 [Compound I-40, 2-amino-9-[(5R,7R,8R,12aR,14R,15S,15aR,16R)-15-fluoro-2,10,16-trihydroxy-2,10-dioxido-14-(1,3,5-triazin-2-ylamino)decahydro-5,8-methanocyclopenta[1][1,3,6,9,11,2,10]pentaoxadiphosphacyclotetradecin-7-yl]-1,9-dihydro-6H-purin-6-one] | 10000 to 25000 | < 1000 | – |
| Nc1nc2c(ncn2[C@@H]2O[C@@H]3COP(=O)(O)O[C@@H]4[C@@H](COP(=O)(O)O[C@@H]2[C@@H]3O)C[C@@H](Nc2ccncn2)[C@@H]4F)c(=O)[nH]1 [Compound I-46, 2-amino-9-[(5R,7R,8R,12aR,14R,15S,15aR,16R)-15-fluoro-2,10,16-trihydroxy-2,10-dioxido-14-(pyrimidin-4-ylamino)decahydro-5,8-methanocyclopenta[1][1,3,6,9,11,2,10]pentaoxadiphosphacyclotetradecin-7-yl]-1,9-dihydro-6H-purin-6-one] | 10000 to 25000 | < 1000 | – |
